# Data from US20140341837A1, “Ferrate and Povidone Iodine (PI) Composition” (Biolife, L.L.C., priority 2010, published 2014).
# What was measured:
# [1] = cited from earlier work
# [2] = stability of PI in the dry powder; type: physicochemical; details: very dry environment of the powder
# Text: The PI is stable in this very dry environment.
# [3] = standard hemostasis strength device; details: povidone iodine at 10%
# Procedure: A mixture of various iron sources, chelation compounds, and active antimicrobials was tested using the recovered biofilm from WU according to the matrix in Table III.
# Each mixture was tested in a standard hemostasis strength device described in detail in FDA 510k filing, K080210, incorporated herein in its entirety, and in the standardized 96 unit biofilm eradication test device also described in the 510k filing. The results were indexed* to #12, the ferrate/resin/10% PI powder.
# [4] = on dilution; cited from earlier work
substance,measurement,setting,value
PVP-Iodine [PI],efficacy at concentrations of 5-10% PI,[1]; 5-10% PI,ineffective
same,I2 concentration of non-effective kill,[1]; pamphlet FIG. 2,< 0.001%
same,stability of PI,[2],stable
same,effect of PI addition on hemostatic efficiency,[3],does not affect the hemostatic efficiency
same,solution strength at maximum content of uncomplexed iodine,[4],0.1%
